The source of these data is patent US20020137725A1, “Use of tagatose in promoting cardiovascular health” (priority 2001, published 2002).

Assay [1] in a line: Example 1: tagatose given to a human patient with lowered HDL level. The format is in vivo. Conditions: 15 grams with each of three meals per day, after six months. The source says:
A human patient is diagnosed as having a lowered HDL level than that found in a previous visit. The physician is concerned that this may forecast atherosclerosis, possibly leading to a heart attack, or to a stroke. The physician prescribes that the patient take 15 grams of tagatose with each of three meals per day. […] The physician is satisfied with the improvement and prescribes continued […] doses of tagatose per meal as a means of maintaining and improving the patient's cardiovascular health.

Assay [2] can be described thus: Pilot study of long term effects of D-tagatose in humans with type-2 diabetes (University of Maryland). In kind it is in vivo. Conditions: long term treatment; each of the subjects, both the patients (type-2 diabetes) and the controls. On the procedure:
U.S. Pat. No. 5,447,917 discloses and claims a method for treating diabetes by administering to a mammal an amount of D-tagatose effective to inhibit the rise in blood sugar associated with the consumption of sugar. A pilot study was conducted at the University of Maryland to investigate the long term effects of D-tagatose in humans with type-2 diabetes.

Molecules are shown by their SMILES.

As for `O=C(CO)[C@@H](O)[C@@H](O)[C@H](O)CO` [tagatose], in assay [1], the “patient's HDL level versus immediately before treatment” value is reported as “significantly higher”.

For `O=C(CO)[C@@H](O)[C@@H](O)[C@H](O)CO` [D-tagatose], in assay [2], the HDL-cholesterol levels entry is “increase in HDL-cholesterol levels”.
